# Organism: Rattus norvegicus
# Test: Open TG-GATES - Regimen: Single
# Format: toxicity, organism-based, Sprague-Dawley
# Design: regimen Single, gender Male, age 6 weeks
# Conditions: in vivo, ip, 0 mg/kg, route intraperitoneal injection, dose level Control; for APTT / Bas / Eos / Fbg / Hb / Ht / Lym / MCH / MCHC / MCV / Mono / Neu / PT / Plat / RBC / Ret / WBC: tissue Blood; for KIDNEY_L / KIDNEY_R / KIDNEY_TOTAL: tissue Kidney; for LIVER: tissue Liver; for A/G / ALP / ALT / AST / BUN / CRE / Ca / Cl / DBIL / GLC / IP / K / LDH / Na / PL / RALB / TBIL / TC / TG / TP / gamma-GTP: tissue Plasma
compound,measurement,setting,value
CCCCS(=N)(=O)CCC(N)C(=O)O (configuration not stated) [BUTHIONINE SULFOXIMINE],TERMINAL_BW,3 h,217.4 g
same,APTT,3 h,16.3 s
same,Bas,3 h,0%
same,Eos,3 h,0.6%
same,Fbg,3 h,214.6 mg/dL
same,Hb,3 h,13.1 g/dL
same,Ht,3 h,39.2%
same,Lym,3 h,66.4%
same,MCH,3 h,21.9 pg
same,MCHC,3 h,33.4%
same,MCV,3 h,65.6 fL
same,Mono,3 h,10%
same,Neu,3 h,23.4%
same,PT,3 h,11.9 s
same,Plat,3 h,108.9 x10_4/uL
same,RBC,3 h,598.2 x10_4/ul
same,Ret,3 h,8.3%
same,WBC,3 h,104.5 x10_2/uL
same,KIDNEY_L,3 h,1 g
same,KIDNEY_R,3 h,1 g
same,KIDNEY_TOTAL,3 h,2 g
same,LIVER,3 h,10.4 g
same,A/G,3 h,2.3
same,ALP,3 h,962.6 IU/L
same,ALT,3 h,44 IU/L
same,AST,3 h,81 IU/L
same,BUN,3 h,12.8 mg/dL
same,CRE,3 h,0.5 mg/dL
same,Ca,3 h,10.9 mg/dL
same,Cl,3 h,104.4 meq/L
same,DBIL,3 h,0.086 mg/dL
same,GLC,3 h,190 mg/dL
same,IP,3 h,10.5 mg/dL
same,K,3 h,4.6 meq/L
same,LDH,3 h,100.4 IU/L
same,Na,3 h,140.6 meq/L
same,PL,3 h,139.6 mg/dL
same,RALB,3 h,3.7 g/dL
same,TBIL,3 h,0.4 mg/dL
same,TC,3 h,76 mg/dL
same,TG,3 h,63.8 mg/dL
same,TP,3 h,5.4 g/dL
same,gamma-GTP,3 h,1.2 IU/L
same,TERMINAL_BW,6 h,211.9 g
same,APTT,6 h,16.7 s
same,Bas,6 h,0%
same,Eos,6 h,0.8%
same,Fbg,6 h,221 mg/dL
same,Hb,6 h,13.3 g/dL
same,Ht,6 h,39.9%
same,Lym,6 h,68.2%
same,MCH,6 h,21.9 pg
same,MCHC,6 h,33.3%
same,MCV,6 h,65.9 fL
same,Mono,6 h,5%
same,Neu,6 h,26%
same,PT,6 h,10.8 s
same,Plat,6 h,112.3 x10_4/uL
same,RBC,6 h,605.2 x10_4/ul
same,Ret,6 h,9.1%
same,WBC,6 h,106.4 x10_2/uL
same,KIDNEY_L,6 h,1 g
same,KIDNEY_R,6 h,1 g
same,KIDNEY_TOTAL,6 h,1.9 g
same,LIVER,6 h,9.5 g
same,A/G,6 h,2
same,ALP,6 h,754.6 IU/L
same,ALT,6 h,38.2 IU/L
same,AST,6 h,68 IU/L
same,BUN,6 h,11.4 mg/dL
same,CRE,6 h,0.7 mg/dL
same,Ca,6 h,10.9 mg/dL
same,Cl,6 h,105.6 meq/L
same,DBIL,6 h,0.014 mg/dL
same,GLC,6 h,197.6 mg/dL
same,IP,6 h,9.8 mg/dL
same,K,6 h,4.9 meq/L
same,LDH,6 h,58.2 IU/L
same,Na,6 h,140.2 meq/L
same,PL,6 h,139.4 mg/dL
same,RALB,6 h,3.5 g/dL
same,TBIL,6 h,0.4 mg/dL
same,TC,6 h,78.2 mg/dL
same,TG,6 h,62.8 mg/dL
same,TP,6 h,5.3 g/dL
same,gamma-GTP,6 h,1.6 IU/L
same,TERMINAL_BW,9 h,214.6 g
same,APTT,9 h,17.1 s
same,Bas,9 h,0%
same,Eos,9 h,1%
same,Fbg,9 h,231 mg/dL
same,Hb,9 h,13.4 g/dL
same,Ht,9 h,40.5%
same,Lym,9 h,74.8%
same,MCH,9 h,21.5 pg
same,MCHC,9 h,33%
same,MCV,9 h,65.1 fL
same,Mono,9 h,5.6%
same,Neu,9 h,19%
same,PT,9 h,11 s
same,Plat,9 h,114 x10_4/uL
same,RBC,9 h,622.2 x10_4/ul
same,Ret,9 h,9.5%
same,WBC,9 h,101.1 x10_2/uL
same,KIDNEY_L,9 h,1 g
same,KIDNEY_R,9 h,1 g
same,KIDNEY_TOTAL,9 h,1.9 g
same,LIVER,9 h,8.9 g
same,A/G,9 h,2.1
same,ALP,9 h,838 IU/L
same,ALT,9 h,34.4 IU/L
same,AST,9 h,65.8 IU/L
same,BUN,9 h,12.8 mg/dL
same,CRE,9 h,0.5 mg/dL
same,Ca,9 h,11 mg/dL
same,Cl,9 h,106 meq/L
same,DBIL,9 h,0.006 mg/dL
same,GLC,9 h,203.4 mg/dL
same,IP,9 h,10.3 mg/dL
same,K,9 h,4.9 meq/L
same,LDH,9 h,60.8 IU/L
same,Na,9 h,139.2 meq/L
same,PL,9 h,146.6 mg/dL
same,RALB,9 h,3.8 g/dL
same,TBIL,9 h,0.3 mg/dL
same,TC,9 h,85 mg/dL
same,TG,9 h,57 mg/dL
same,TP,9 h,5.6 g/dL
same,gamma-GTP,9 h,1.2 IU/L
same,TERMINAL_BW,24 h,226.3 g
same,APTT,24 h,17.2 s
same,Bas,24 h,0%
same,Eos,24 h,1%
same,Fbg,24 h,231.6 mg/dL
same,Hb,24 h,13.6 g/dL
same,Ht,24 h,41%
same,Lym,24 h,75.4%
same,MCH,24 h,21.3 pg
same,MCHC,24 h,33.1%
same,MCV,24 h,64.5 fL
same,Mono,24 h,8.4%
same,Neu,24 h,15.2%
same,PT,24 h,11.4 s
same,Plat,24 h,115.5 x10_4/uL
same,RBC,24 h,636.4 x10_4/ul
same,Ret,24 h,8.8%
same,WBC,24 h,88.5 x10_2/uL
same,KIDNEY_L,24 h,1 g
same,KIDNEY_R,24 h,1 g
same,KIDNEY_TOTAL,24 h,2 g
same,LIVER,24 h,11 g
same,A/G,24 h,1.8
same,ALP,24 h,826.4 IU/L
same,ALT,24 h,37.8 IU/L
same,AST,24 h,63.2 IU/L
same,BUN,24 h,17.8 mg/dL
same,CRE,24 h,0.5 mg/dL
same,Ca,24 h,11.2 mg/dL
same,Cl,24 h,103.6 meq/L
same,DBIL,24 h,0.008 mg/dL
same,GLC,24 h,210.6 mg/dL
same,IP,24 h,9 mg/dL
same,K,24 h,4.8 meq/L
same,LDH,24 h,89.2 IU/L
same,Na,24 h,139.6 meq/L
same,PL,24 h,163.4 mg/dL
same,RALB,24 h,3.7 g/dL
same,TBIL,24 h,0.3 mg/dL
same,TC,24 h,83.2 mg/dL
same,TG,24 h,109.2 mg/dL
same,TP,24 h,5.8 g/dL
same,gamma-GTP,24 h,1.6 IU/L

# Source: ChEMBL document CHEMBL3885861, “Open TG-GATES”
